Source: ChEMBL document CHEMBL1201862, “PubChem BioAssay data set” (2004)
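Test compounds were applied to cells in 96-well plates for 48 hours at 5 doses. GI50: concentration for 50% inhibition of growth.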 Activity calls are given as the source filed them. Cut-off read from the data, not from the text of the source: active = GI50 up to about 1.1 µM and inactive = higher. Where a SMILES comes first, the peptide text is derived from it. The star is where a group is joined. Boc = CC(C)(C)OC(=O)*

Tests used:
Assay in all cases: NCI anticancer screen, dose series, 48 h
786-0 = test system: 786-0
A549 = test system: A549
CCRF-CEM = test system: CCRF-CEM
HOP-62 = test system: HOP-62
HT-29 = test system: HT-29
Hs-578T = test system: Hs-578T
IGROV-1 = test system: IGROV-1
KM-20L2 = test system: KM-20L2
M14 = test system: M14
MDA-MB-435 = test system: MDA-MB-435
MDA-N = test system: MDA-N
Malme-3M = test system: Malme-3M
NCI-H460 = test system: NCI-H460
RPMI-8226 = test system: RPMI-8226
SF-539 = test system: SF-539
SK-MEL-5 = test system: SK-MEL-5
SK-OV-3 = test system: SK-OV-3
SNB-19 = test system: SNB-19
UACC-62 = test system: UACC-62
MCF7 = test system: MCF7

Measured: GI50

COc1ccc(/C(Cl)=C(\C=O)c2cc(OC)c(OC)c(OC)c2)cc1OC
inactive: 786-0 34.4 µM | A549 33.3 µM | CCRF-CEM 26.1 µM | HOP-62 29.5 µM | HT-29 12.8 µM | Hs-578T 27.5 µM | IGROV-1 44.5 µM | KM-20L2 22.8 µM | M14 56.4 µM | MDA-MB-435 48.4 µM | MDA-N 12.3 µM | Malme-3M 15 µM | NCI-H460 18.5 µM | RPMI-8226 10.8 µM | SF-539 26.2 µM | SK-MEL-5 14.8 µM | SK-OV-3 72.4 µM | SNB-19 > 52.6 µM | UACC-62 15.7 µM

CCOC(=O)C/C(=N\c1cc(C)on1)N(CC)CC.[O-][Cl+3]([O-])([O-])O
inactive: 786-0 > 100 µM | A549 > 100 µM | CCRF-CEM > 100 µM | HOP-62 > 100 µM | HT-29 > 100 µM | IGROV-1 > 100 µM | KM-20L2 > 100 µM | M14 > 100 µM | Malme-3M > 100 µM | NCI-H460 > 100 µM | RPMI-8226 > 100 µM | SF-539 > 100 µM | SK-MEL-5 > 100 µM | SK-OV-3 > 100 µM | SNB-19 > 100 µM | UACC-62 > 100 µM

C1CN(c2nnc(N3CCC3)nn2)C1
inactive: 786-0 34.8 µM | A549 > 100 µM | CCRF-CEM > 100 µM | HOP-62 > 85.7 µM | HT-29 35.6 µM | Hs-578T 39 µM | IGROV-1 > 100 µM | KM-20L2 > 44.8 µM | M14 36.1 µM | MCF7 > 50.2 µM | MDA-MB-435 18.4 µM | MDA-N 17.3 µM | Malme-3M 44.4 µM | NCI-H460 67.9 µM | RPMI-8226 > 100 µM | SF-539 44.8 µM | SK-MEL-5 25.2 µM | SK-OV-3 > 100 µM | SNB-19 > 67.9 µM | UACC-62 19.3 µM

CC(C)(C)OC(=O)NC(Cc1ccc(O)cc1)C(=O)N1CCCC1C(=O)O (stereo not drawn) (Boc-Tyr-Pro-OH; configuration not given here)
inactive: 786-0 > 100 µM | A549 > 100 µM | CCRF-CEM > 100 µM | HOP-62 > 100 µM | HT-29 > 100 µM | IGROV-1 > 100 µM | KM-20L2 > 100 µM | M14 > 100 µM | Malme-3M > 100 µM | NCI-H460 > 100 µM | RPMI-8226 > 100 µM | SF-539 > 100 µM | SK-MEL-5 > 100 µM | SK-OV-3 > 100 µM | SNB-19 > 100 µM | UACC-62 > 100 µM
